We go through 56 compounds from patent publication US10124004B2, “Pyrido[3,4-d]pyrimidine derivative and pharmaceutically acceptable salt thereof” (Teijin Pharma Limited, priority 2015, dated 2018).

This assay addresses T1, CDK4/cyclin D3 (Homo sapiens, UniProt P11802).
T1 construct: purchased Carna Biosciences, Inc. QS S Assist CDK4/Cyclin D3_FP Kit
In words: Human CDK4/cyclin D3 inhibitory activity (QS S Assist CDK4/Cyclin D3_FP Kit, IMAP fluorescence polarization). Format: biochemical. As to conditions: Human CDK4/cyclin D3 inhibitory activity; read-out: CDK4 Activity symbol. How it is done: Human CDK4/Cyclin D3 Inhibitory Activity
Each compound was analyzed for CDK4/cyclin D3 inhibitory activity with an assay kit (QS S Assist CDK4/Cyclin D3_FP Kit, available from Carna Biosciences, Inc.). This assay kit determines kinase activity on the basis of the IMAP technology by Molecular Devices. Specifically, the kinase activity is determined through quantification of a variation in fluorescent polarization caused by binding of a kinase-phosphorylated fluorescent substance to an IMAP-binding reagent.
Each solution was prepared with the 10× assay buffer attached to the kit or a separately prepared assay buffer having the same composition as the assay buffer attached to the kit. An assay buffer was prepared by 10-fold dilution of the 10× assay buffer with distilled water. The assay buffer contains 20 mM HEPES (pH 7.4), 0.01% Tween20, and 2 mM dithiothreitol. A test compound solution was prepared by dilution of the test compound with dimethyl sulfoxide (DMSO) to a concentration 100 times higher than the final concentration and then 25-fold dilution with the assay buffer to a concentration four times higher than the final concentration. An ATP/substrate/Metal solution was prepared by five-fold dilution of the 5×ATP/substrate/Metal solution attached to the kit with the assay buffer. An enzyme solution was prepared by dilution of the CDK4/cyclin D3 attached to the kit with the assay buffer to a concentration twice higher than the final concentration (final concentration of CDK4/cyclin D3:12.5 to 25 ng/well). A detection reagent was prepared by five-fold dilution of each of 5× IMAP-binding buffer A and 5×IMAP-binding buffer B with distilled water, mixing of IMAP-binding buffer A with IMAP-binding buffer B at a ratio of 85:15, and 400-fold dilution of the IMAP-binding reagent with the mixed buffer.
The test compound solution (5 μL/well) and the ATP/substrate/Metal solution (5 μL/well) were added to a 384-well plate, and the enzyme solution or the assay buffer (10 μL/well) was added to the plate (total amount of the reaction mixture: 20 μL/well) for initiation of enzymatic reaction. […] The reaction was performed at room temperature for 45 minutes, and the detection reagent (60 μL/well) was then added to the plate, followed by further reaction for 30 minutes at room temperature under light shielding conditions. Subsequently, fluorescent polarization was determined with a microplate reader at an excitation wavelength of 485 nm and an emission wavelength of 535 nm.
The percent inhibition of enzyme activity was calculated for each test compound (note: enzyme activity=100% in the case of addition of the enzyme solution and addition of DMSO instead of the test compound solution, whereas enzyme activity=0% in the case of addition of the assay buffer instead of the enzyme solution, and addition of DMSO instead of the test compound solution). The percent inhibition of enzyme activity was fitted to a dose-response curve, to determine a 50% inhibitory concentration against CDK4/cyclin D3.
In each table, “+++” corresponds to IC50<10 nM, “++” 10 nM≤IC50<100 nM, and “+” 100 nM≤IC50.

Some results are limits rather than exact numbers.

T1 sequence (P11802 whole entry): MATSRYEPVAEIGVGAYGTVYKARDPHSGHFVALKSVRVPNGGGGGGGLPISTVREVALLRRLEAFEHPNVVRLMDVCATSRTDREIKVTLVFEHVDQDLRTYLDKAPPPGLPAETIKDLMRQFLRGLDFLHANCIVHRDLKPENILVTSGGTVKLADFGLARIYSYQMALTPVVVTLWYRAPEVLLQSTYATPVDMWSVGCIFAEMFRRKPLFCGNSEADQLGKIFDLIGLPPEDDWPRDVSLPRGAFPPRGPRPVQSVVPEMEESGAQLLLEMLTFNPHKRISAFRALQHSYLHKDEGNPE
T1 sequence (P30281 whole entry partner): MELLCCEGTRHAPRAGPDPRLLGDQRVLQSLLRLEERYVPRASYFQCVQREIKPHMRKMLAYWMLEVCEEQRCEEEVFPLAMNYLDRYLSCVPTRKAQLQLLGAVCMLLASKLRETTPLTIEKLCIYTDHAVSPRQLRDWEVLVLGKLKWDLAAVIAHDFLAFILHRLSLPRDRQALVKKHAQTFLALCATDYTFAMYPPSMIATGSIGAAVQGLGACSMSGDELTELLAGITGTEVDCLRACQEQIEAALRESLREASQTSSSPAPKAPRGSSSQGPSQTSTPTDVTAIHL

As to `CO[C@H](C)c1cc2cnc(Nc3ccc(N4CCCNCC4)nn3)nc2c(NC(C)C)n1` [Compound 495], the IC50 is under 10 nM.
The same measure for `CC(C)Nc1nc([C@@H](C)O)cc2cnc(Nc3ccc(N4CCCNCC4)nn3)nc12` [Compound 496]: under 10 nM.
As for `CO[C@H](C)c1cc2cnc(Nc3ccc(N4CCNC4=O)cn3)nc2c(NC(C)C)n1` [Compound 498], the IC50 is under 10 nM.
For `CO[C@H](C)c1cc2cnc(Nc3ccc(N4C5CCC4CNC5)cn3)nc2c(NC(C)C)n1` [Compound 500], the IC50 is under 10 nM.
`CO[C@H](C)c1cc2cnc(Nc3ccc(N4C5CCC4CC(N)C5)cn3)nc2c(NC(C)C)n1` (some centres unmarked) [Compound 502]: the IC50 is under 10 nM.
`CNC1C2CCC1CN(c1ccc(Nc3ncc4cc([C@@H](C)OC)nc(NC(C)C)c4n3)nc1)C2` (some centres unmarked) [Compound 503]: the IC50 was under 10 nM.
Take `CO[C@H](C)c1cc2cnc(Nc3ccc(OC4CC5CCC(C4)N5)cn3)nc2c(NC(C)C)n1` (some centres unmarked) [Compound 504]: the IC50 is under 10 nM.
`CO[C@H](C)c1cc2cnc(Nc3ccc(OCC4(N)CCC4)cn3)nc2c(NC(C)C)n1` [Compound 505]: the IC50 lay within 10 to 100 nM.
`CC(C)Nc1nc([C@@H](C)O)cc2cnc(Nc3ccc(N4CCN[C@H](C)C4=O)cn3)nc12` [Compound 506]: the IC50 lay in the range of 10 to 100 nM.
As for `COC(C)c1cc2cnc(Nc3ccc(CN4CCNCC4)cn3)nc2c(NC2CC3(C2)CC(C(=O)O)C3)n1` (centres unmarked) [Compound 513], the IC50 was 10 to 100 nM.
Turning to `CO[C@H](C)c1cc2cnc(Nc3ccc(N4CCNC(=O)C(C)(C)C4)cn3)nc2c(NC(C)C)n1` [Compound 514], the IC50 fell in the range of 10 to 100 nM.
In the case of `COC(C)c1cc2cnc(Nc3ccc(CN4CCNC5(CC5)C4)cn3)nc2c(NC(C)C)n1` (centres unmarked) [Compound 515], the IC50 was in the range of 10 to 100 nM.
In the case of `CC(C)Nc1nc(C(C)O)cc2cnc(Nc3ccc(CN4CCNC5(CC5)C4)cn3)nc12` (centres unmarked) [Compound 516], the IC50 lay within 10 to 100 nM.
For `CC(C)Nc1nc([C@@H](C)O)cc2cnc(Nc3ccc(N4CCCC(O)C4)nn3)nc12` (some centres unmarked) [Compound 517], the IC50 was under 10 nM.
Take `CO[C@H](C)c1cc2cnc(Nc3ccc(CC(=O)N4CCNCC4)cn3)nc2c(NC(C)C)n1` [Compound 518]: the IC50 was under 10 nM.
For `CC(C)Nc1nc([C@@H](C)O)cc2cnc(Nc3ccc(N4CCC(N5CCOCC5)CC4)nn3)nc12` [Compound 520], the IC50 is under 10 nM.
For `CO[C@H](C)c1cc2cnc(Nc3ccc(N4CC5(CC(O)C5)C4)nn3)nc2c(NC(C)C)n1` [Compound 523], the IC50 is under 10 nM.
Turning to `CO[C@H](C)c1cc2cnc(Nc3ccc(N4C[C@@H]5C[C@H]4CN5)cn3)nc2c(NC(C)C)n1` [Compound 525], the IC50 is under 10 nM.
As to `CNCCCOc1ccc(Nc2ncc3cc([C@@H](C)OC)nc(NC(C)C)c3n2)nn1` [Compound 527], the IC50 lay in the range of 10 to 100 nM.
As to `CNCCCOc1ccc(Nc2ncc3cc([C@@H](C)O)nc(NC(C)C)c3n2)nc1` [Compound 528], the IC50 was under 10 nM.
For the compound `CNCCCOc1ccc(Nc2ncc3cc([C@@H](C)O)nc(NC(C)C)c3n2)nn1` [Compound 530], the IC50 is under 10 nM.
As for `CO[C@H](C)c1cc2cnc(Nc3ccc(N4CCN(C)CC4)nn3)nc2c(NC(C)C)n1` [Compound 531], the IC50 is under 10 nM.
Take `CO[C@H](C)c1cc2cnc(Nc3ccc(N4CC(=O)NCC4=O)cn3)nc2c(NC(C)C)n1` [Compound 533]: the IC50 is under 10 nM.
The same measure for `CO[C@H](C)c1cc2cnc(Nc3ccc(CN4CCNC(C)(C)C4)cn3)nc2c(NC(C)C)n1` [Compound 534]: under 10 nM; for `CO[C@H](C)c1cc2cnc(Nc3ccc(CN4CCNC5(CC5)C4)cn3)nc2c(NC(C)C)n1` [Compound 535]: under 10 nM; for `CC(C)Nc1nc([C@@H](C)O)cc2cnc(Nc3ccc(CN4CCNC(C)(C)C4)cn3)nc12` [Compound 536]: under 10 nM.
The same measure for `CC(C)Nc1nc([C@@H](C)O)cc2cnc(Nc3ccc(N(C)C(=O)CN)cn3)nc12` [Compound 538]: under 10 nM.
The result for `CNC(=O)CNc1ccc(Nc2ncc3cc([C@@H](C)O)nc(NC(C)C)c3n2)nc1` [Compound 539] reads 10 to 100 nM; that for `CC(C)Nc1nc([C@@H](C)O)cc2cnc(Nc3ccc(N4CCNC(=O)C4)nn3)nc12` [Compound 540], under 10 nM.
Regarding `CC(C)Nc1nc([C@@H](C)O)cc2cnc(Nc3ccc(OC4CCCNC4)nn3)nc12` (some centres unmarked) [Compound 541], the IC50 is under 10 nM.
Take `CO[C@H](C)c1cc2cnc(Nc3ccc(N4CCNCC(C)(C)C4=O)cn3)nc2c(NC(C)C)n1` [Compound 542]: the IC50 lay in the range of 10 to 100 nM.
With `CC(C)Nc1nc([C@@H](C)O)cc2cnc(Nc3ccc(N4CCNCC(C)(C)C4=O)cn3)nc12` [Compound 543], the IC50 is under 10 nM.
On to `CC(C)Nc1nc([C@@H](C)O)cc2cnc(Nc3ccc(OC4CCNC4)nn3)nc12` (some centres unmarked) [Compound 544], for which the IC50 was under 10 nM.
`CC(C)Nc1nc([C@@H](C)O)cc2cnc(Nc3ccc(O[C@H]4CNC[C@@H]4F)nn3)nc12` [Compound 545]: the IC50 was under 10 nM.
For `CC(C)Nc1nc([C@@H](C)O)cc2cnc(Nc3ccc(OC4CNC4)nn3)nc12` [Compound 546], the IC50 is under 10 nM.
`CC(C)Nc1nc([C@@H](C)O)cc2cnc(Nc3ccc(O[C@H]4CNCC[C@@H]4F)nn3)nc12` [Compound 547]: the IC50 was under 10 nM.
The same measure for `CNCCOc1ccc(Nc2ncc3cc([C@@H](C)OC)nc(NC(C)C)c3n2)nn1` [Compound 551]: 10 to 100 nM; for `CNCCOc1ccc(Nc2ncc3cc([C@@H](C)O)nc(NC(C)C)c3n2)nn1` [Compound 552]: under 10 nM; for `CC(C)Nc1nc([C@@H](C)O)cc2cnc(Nc3ccc(O[C@H]4CCNC[C@@H]4F)nn3)nc12` [Compound 563]: under 10 nM.
Turning to `CC(C)Nc1nc([C@@H](C)O)cc2cnc(Nc3ccc(O[C@@H]4CCNC[C@@H]4F)nn3)nc12` [Compound 564], the IC50 is under 10 nM.
As to `CC(C)Nc1nc([C@@H](C)O)cc2cnc(Nc3ccc(O[C@H]4CCCNC4)cn3)nc12` [Compound 565], the IC50 is under 10 nM.
On to `CC(C)Nc1nc([C@@H](C)O)cc2cnc(Nc3ccc(OC4CNC4)cn3)nc12` [Compound 568], for which the IC50 is under 10 nM.
The result for `CC(C)Nc1nc([C@@H](C)O)cc2cnc(Nc3ccc(OCC4CNC4)cn3)nc12` [Compound 570] reads under 10 nM.
On to `CC(C)Nc1nc([C@@H](C)O)cc2cnc(Nc3ccc(O[C@@H]4CCCNC4)cn3)nc12` [Compound 571], for which the IC50 was under 10 nM.
The result for `CC(C)Nc1nc(C(C)O)cc2cnc(Nc3ccc(OC4CNCCC4F)cn3)nc12` (centres unmarked) [Compound 577] reads under 10 nM; that for `CC(C)Nc1nc([C@@H](C)O)cc2cnc(Nc3ccc(OCC4(F)CNC4)cn3)nc12` [Compound 578], under 10 nM; that for `CC(C)Nc1nc([C@@H](C)O)cc2cnc(Nc3ccc(SCCN(C)C)cn3)nc12` [Compound 580], 10 to 100 nM.
Regarding `CC(C)Nc1nc([C@@H](C)O)cc2cnc(Nc3ccc(N4CCN(CC(C)(C)C)CC4)nn3)nc12` [Compound 587], the IC50 was under 10 nM.
On to `CNC1(C)CCN(c2ccc(Nc3ncc4cc([C@@H](C)OC)nc(NC(C)C)c4n3)nn2)CC1` [Compound 594], for which the IC50 is under 10 nM.
Regarding `CC(C)Nc1nc([C@@H](C)O)cc2cnc(Nc3ccc(N4CCN(C(C)CO)CC4=O)cn3)nc12` (some centres unmarked) [Compound 598], the IC50 is under 10 nM.
As to `CO[C@H](C)c1cc2cnc(Nc3ccc(N4CCN(C(C)(C)C)CC4)nn3)nc2c(NC(C)C)n1` [Compound 599], the IC50 is 10 to 100 nM.
`CC(C)Nc1nc([C@@H](C)O)cc2cnc(Nc3ccc(N4CCN(CC(C)(C)C)CC4=O)cn3)nc12` [Compound 603]: the IC50 is under 10 nM.
Consider `CC(C)Nc1nc(C(C)O)cc2cnc(Nc3ccc(N4CCC(O)C(F)C4)nn3)nc12` (centres unmarked) [Compound 607], for which the IC50 was under 10 nM.
Turning to `CC(C)Nc1nc([C@@H](C)O)cc2cnc(Nc3ccc(N4CCNCC4=O)nn3)nc12` [Compound 613], the IC50 lay in the range of 10 to 100 nM.
As to `CC(C)Nc1nc([C@@H](C)O)cc2cnc(Nc3ccc(CC(=O)N4CCN(CCO)CC4)cn3)nc12` [Compound 616], the IC50 was under 10 nM.
Regarding `CC(C)Nc1nc([C@@H](C)O)cc2cnc(Nc3ccc(N4CCC(O)C(F)(F)C4)nn3)nc12` (some centres unmarked) [Compound 617], the IC50 is under 10 nM.
